Data published in patent publication US20130191934A1, “TREATMENT OF SYMPTOMS ASSOCIATED WITH MENOPAUSE” (INDIANA UNIVERSITY RESEARCH AND TECHNOLOGY CORPORA, priority 2010, published 2013).
“Also recorded” adds a separate entry of the source.

What was measured:
OVEX'ed rats = conditions: cited from earlier work; for anxiety behaviors in the elevated plus maze (EPM) and open field tests (OFT): OVEX'ed rats; for block of the anxiety induced by OVEXing a female rat: daily s.c.: E2 0.25 mg/kg, DPN 1.0 mg/kg, PPT 1.0 mg/kg, Walf et al., 2010
ORX1 and ORX2 receptors = conditions: cited from earlier work
[1] = under investigation for insomnia; cited from earlier work
[2] = test system: female ovariectomized rats; experiment: Yohimbine challenge, tail skin and core body temperature in OVEX rats; format: in vivo, rat; conditions: 5 mg/kg i.p.
Description: (§1) FIG. 5A & 5B are graphs showing the effects of yohimbine on cellular responses. […] Black and gray outlined bars respectively represent c-FOS/ORX double and total ORX-ir labeled neurons in the hypothalamus. *Mann-whiney U=1.5, p=0.001. […] Treatment by time effect F(89,267)=2.7, p<0.001.
To objectively measure “hot flash” (assessed by tail temp) related activity in female OVEX rats, magnetically activated radiotelemetry probes (dimensions: 3.5 cc volume with 0.05° C. resolution) were implanted subcutaneously under the skin on the back of rat. The probe has 2 leads, each with an ˜1 cm long temp sensor that can be implanted in the tail and into the abdominal cavity to respectively measure skin and core body temp (as well as general ambulatory activity) in freely moving rats for extended periods. Recently we used the dual thermistor probes and were able to replicate previous findings that tail temp decreases during active phase in sham-OVEX rats, but this decrease is blunted in OVEX rats (FIG. 4B).
(§2) Conversely, administering intravenous infusions of yohimbine (alpha2-adrenergic autoreceptor antagonist) to symptomatic, but not asymptomatic, menopausal women provokes “hot flashes” (Freedman et al, Obstet Gynecol, 1990. 76(4): p. 573-8). […] A dramatic drop in core body temp also immediately follows this, which also occurs in women following the onset of a hot flash.

menopausal women = conditions: cited from earlier work
ORX-ir neurons = experiment: c-Fos induction in ORX-ir neurons after yohimbine; format: in vivo, rat; conditions: 5 mg/kg i.p.; male rats; FIG. 5A
Text: as §1, §2

panic-prone rats = experiment: Sodium lactate challenge in panic-prone (l-allylglycine) rats; format: in vivo, rat; conditions: for anxiety-like responses (social interaction duration) after sodium lactate: 30 mg/kg i.p. before 15 min i.v. 0.5M sodium lactate, FIG. 1b; for lactate induced increases in core body temperature / lactate induced increases in heart rate: 30 mg/kg i.p.; for lactate induced increases in core body temperature: FIG. 1c; for lactate induced increases in heart rate: FIG. 1d
Text: Panic disorder is associated with disruption of central inhibitory gamma-aminobutyric acid (GABAergic) tone, and may contribute to panic attacks which are consistently provoked by ordinarily mild physical stressors such as mild osmotic disturbances (e.g., intravenous sodium lactate challenges).
Orexin/hypocretin producing neurons are almost exclusive to dorsomedial hypothalamus and adjacent lateral hypothalamus, and play a critical role in maintaining wakefulness, vigilance and central sympathetic mobilization, which are key components of panic and anxiety. Experiments were conducted to investigate whether the administration of either a systemic orexin 1 antagonist or silencing the hypothalamic orexin gene product with RNA interference could block lactate-induced panic responses.

[3] = test system: female ovariectomized, or sham-OVEX control, rats; experiment: Hypercapnia (20% CO2) challenge, tail skin temperature in OVEX rats; format: in vivo, rat; conditions: 30 mg/kg pretreatment
Text: Hypercapnia model: There is also evidence that altered respiration patterns may trigger hot flashes whereas paced respiration may alleviate hot flash incidence and intensity. Increased or decreased respiration activity alters blood CO2/pH levels, and a hypersensitivity to CO2/pH may be present in conditions where estrogen activity is very low.

[4] = test system: adult female rats (OVEX or tamoxifen); experiment: Open field anxiety test in tamoxifen-treated or ovariectomized female rats; format: in vivo, rat; conditions: for anxiety-like behavior (time spent in center of open field) in OVEX rats: 30 mg/kg i.p. 30 min prior to testing, OVEX female rats, FIG. 3B
Description: FIG. 3A & 3B are bar graphs showing the effects of subcutaneously injecting adult female rats with 3 days of vehicles (10% DMSO, 90% sesame oil) or 10 mg/kg tamaoxifen (a nonselective estrogen receptor antagonist) on time spent in the center of an open field. * represents p,0.05 with unpaired t-test. n=6/group. […] Bars represent mean and error bars represent SEM. * represents p,0.05 Mann Whitney U test following an ANOVA f(3,35)=2.9, p=0.048.
Furthermore, experiments were conducted to investigate the impact of lowering estrogen activity by either administering tamoxifen or ovariectomizing rats.

[5] = test system: dorsomedial hypothalamus (DMH) of anesthetized rat; experiment: BMI microinjection into the DMH of anesthetized rats; format: in vivo; conditions: 30 mg/kg i.p.; BMI 20 pmol/50 nL into DMH; FIG. 2; listed as SB334861
Description: FIG. 2 Continuous and simultaneous measurement of blood pressure (top panel), heart rate (middle panel), and core body temperature (bottom panel) in an isoflurane anesthetized rat after identical microinjections of BMI (20 pmol/50 nL) into the DMH (time marks 1 and 3) before and after systemic administration of the orexin-1 receptor antagonist SB334861 (30 mg/kg i.p.; time mark 2).
As disclosed herein, experiments were conducted to determine whether an orexin-1 receptor antagonist (SB334861) or an orexin-2 receptor antagonist (TCSOX229) could attenuate the physiologic responses to chemical stimulation of the DMH. Chemical stimulation or disinhibition of neurons in the region of the dorsomedial hypothalamus (DMH) was conducted using the GABAA receptor antagonist bicuculline methiodide (BMI). To test orexin inhibitors ability to attenuate the BMI stimulated response, BMI was microinjected (20 pmol/50 nL) into the DMH of urethane-anesthetized rats both before and after systemic administration of the orexin inhibitor, and the responses were monitored.

[6] = 30 mg/kg intraperitoneal; cited from earlier work
[7] = OVEX rats, 5 min 20% CO2, FIG. 6B
[8] = listed as orexin 1 receptor antagonist

For N#CC(Cc1ccc(O)cc1)c1ccc(O)cc1 (stereo not drawn) [DPN, diarylpropionitrile], the “anxiety behaviors in the elevated plus maze (EPM) and open field tests (OFT)” value (shortened to “anxiety behaviors”) (OVEX'ed rats) is given as “decreased anxiety behaviors” and the “block of the anxiety induced by OVEXing a female rat” value (“block of the anxiety induced” for short) (OVEX'ed rats) is given as “block the anxiety”.
In the case of Cc1ccc(-n2nccn2)c(C(=O)N2CCN(c3nc4cc(Cl)ccc4o3)CC[C@H]2C)c1 [MK4305], the “mode of orexin receptor antagonism” value (ORX1 and ORX2 receptors) is given as “competitive, dual ORX1 and ORX2 receptor antagonists” and the “safety and side effects in phase III trials” value [1] is given as “safe, have few side effects”.
For COC(=O)[C@@H]1[C@H]2C[C@H]3c4[nH]c5ccccc5c4CCN3C[C@@H]2CC[C@@H]1O [yohimbine], the tail skin temperature ([2]; female OVEX vs sham-OVEX rats, FIG. 5B) is listed as “rapidly increase tail skin temp in female OVEX, but not sham OVEX control rats”, the “core body temp following tail skin temp increase” value ([2]; yohimbine challenge) is listed as “dramatic drop” and the “provocation of hot flashes” value (menopausal women; intravenous infusions, symptomatic, but not asymptomatic, menopausal women) is listed as “provokes”. The “cellular responses (c-Fos induction) in ORX neurons” value (ORX-ir neurons) was “increase cellular activity in ORX neurons”.
For CCCc1c(-c2ccc(O)cc2)nn(-c2ccc(O)cc2)c1-c1ccc(O)cc1 [PPT, Tris(4-hydroxyphenyl)-4-propyl-1Hpyrazole], the “anxiety behaviors” value (OVEX'ed rats) is listed as “increase anxiety behaviors” and the “block of the anxiety induced” value (OVEX'ed rats) is listed as “not”.
For C[C@]12CC[C@@H]3c4ccc(O)cc4CC[C@H]3[C@@H]1CC[C@@H]2O [E2, 17-β-estradiol], the “anxiety behaviors” value (OVEX'ed rats) is listed as “decreased anxiety behaviors” and the “block of the anxiety induced” value (OVEX'ed rats) is listed as “block the anxiety”.
With Cc1nnc2n1-c1ccc(Cl)cc1C(c1ccccc1)=NC2 [alprazolam] the “lactate-induced responses versus vehicle treated groups (Fisher's LSD, p<0.05)” value (panic-prone rats; alprazolam 3 mg/kg i.p., FIG. 1) was “significant differences”.
For Cc1nc2ccc(NC(=O)Nc3ccnc4cccnc34)cc2o1 [SB334867, 1-(2-methylbenzoxazol-6-yl)-3-[1,5]naphthyridin-4-yl urea], the “intensity of the hot flash (tail skin temperature) after 20% CO2” value [3, 7] was “reduces the intensity”, the “onset of the hot flash (tail skin temperature) after 20% CO2” value [3, 7] was “delays the onset” and the “baseline levels of tail temp in controls” value ([3]; sham-OVEX controls) was “reduced baseline levels of tail temp”. For the same compound, the “anxiety-like behavior (time spent in center of open field) in OVEX rats” value [4] was “reverses anxiogenic effects”, the “anxiety-like behavior (time spent in center of open field) in OVEX rats” value ([4]; listed as ORX 1 receptor antagonist) was “reverse the anxiogenic effects of OVEX” and the “anxiety-like responses (social interaction duration) after sodium lactate” value (panic-prone rats) was “Blocks; also recorded: attenuated”. The “anxiety-like responses (social interaction duration) after sodium lactate” value (panic-prone rats; [8]) was “blocks”, the “lactate induced increases in core body temperature” value (panic-prone rats) was “block; also recorded: attenuated” and the “lactate induced increases in core body temperature” value (panic-prone rats; [8]) was “blocks”. The “lactate induced increases in heart rate” value (panic-prone rats) was “attenuated”, the “lactate induced increases in heart rate” value (panic-prone rats; [8]) was “blocks” and the “BMI-evoked increase in blood pressure” value [5] was “significant attenuation”. For the same compound, the “BMI-evoked increase in core body temperature” value [5] was “significant attenuation”, the “BMI-evoked increase in heart rate” value [5] was “significant attenuation” and the “crossing of blood brain barrier” value [6] was “crosses blood brain barrier”. The “duration of central activity” value [6] was greater than 4 h.
For CNC(=O)[C@@H](c1ccccc1)N1CCc2cc(OC)c(OC)cc2[C@@H]1CCc1ccc(C(F)(F)F)cc1 [Almorexant], the “mode of orexin receptor antagonism” value (ORX1 and ORX2 receptors) is listed as “competitive, dual ORX1 and ORX2 receptor antagonists” and the “safety and side effects in phase III trials” value [1] is listed as “safe, have few side effects”.
In the case of CC/C(=C(\c1ccccc1)c1ccc(OCCN(C)C)cc1)c1ccccc1 [tamoxifen], the “anxiety-like behavior (time spent in center of open field) compared to controls” value ([4]; tamoxifen 10 mg/kg s.c., 3 days, adult female rats, FIG. 3A) is reported as “increased anxiety-like behavior”.
In the case of Clc1cccc(Cl)c1N=C1NCCN1 [clonidine], the “incidence of hot flashes in menopausal women” value (menopausal women; Freedman et al, 1990) is listed as “reduce the incidence”.
